The record followed here is patent US6525059B1, “Substituted pyrazoles as p38 kinase inhibitors” (G. D. Searle & Company, priority 1998, dated 2003).

The structures appear in SMILES notation. Where two headings read alike, the source gives them in different places.

For one experiment, the target named is T1, human p38 kinase alpha (Homo sapiens, UniProt Q16539).
T1 construct: The coding region of the human p38a cDNA was obtained by PCR-amplification from RNA isolated from the human monocyte cell line THP.1; GST (N); made in house; host or cells: E. coli DH10B
T1 sequence (Q16539 whole entry): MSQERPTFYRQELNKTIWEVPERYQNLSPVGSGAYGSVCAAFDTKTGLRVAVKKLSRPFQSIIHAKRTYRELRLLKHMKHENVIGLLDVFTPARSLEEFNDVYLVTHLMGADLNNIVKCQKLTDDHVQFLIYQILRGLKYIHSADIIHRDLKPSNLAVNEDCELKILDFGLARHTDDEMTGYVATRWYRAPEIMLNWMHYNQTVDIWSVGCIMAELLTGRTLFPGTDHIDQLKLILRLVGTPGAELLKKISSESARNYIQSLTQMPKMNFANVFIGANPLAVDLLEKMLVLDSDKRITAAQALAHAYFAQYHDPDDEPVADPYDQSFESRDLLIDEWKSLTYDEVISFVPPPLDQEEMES
The experiment can be described thus: p38 kinase in vitro assay, phosphorylation of biotinylated PHAS-I with gamma 32P-ATP. Format: biochemical. The following applies: read-out: P38 alpha kinase IC50. The method, boiled down:
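MKK6-activated human p38α phosphorylates biotinylated PHAS-I with γ-32P-ATP in 25 mM HEPES pH 7.5, 10 mM Mg acetate, 50 μM unlabeled ATP, 1% DMSO, 30 °C for 1 h or overnight. Compounds at 100–0.001 μM (10-fold steps, triplicate); substrate captured on streptavidin filter plates and counted by scintillation.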

The subject of the next experiment is human TNF. The experiment can be described thus: TNF inhibition: human whole blood assay. The experiment is classed as cell-based. The following applies: for IC50: Homo sapiens; for inhibition at 5 µM: read-out: Human Whole Blood % Inhib @ conc. The protocol:
Human peripheral blood is obtained in heparinized tubes. A 190 μL aliquot of blood is placed in each well of a 96 well u-bottom plate. […] After one hour of incubation at 37° C., […] of lipopolysaccharide (Salmonella typhosa, Sigma) in phosphate buffered saline is added resulting in a final concentration of […]. After four to five hours of incubation at 37° C., the supernatants are harvested and assayed at 1:10 or 1:20 dilutions for human TNF using ELISA.

Another experiment concerns TNF-α. The experiment can be described thus: Rat assay: LPS-challenged rats, serum TNF-α by ELISA. Format: in vivo. The following applies: Rattus norvegicus, po. How it is done:
The efficacy of the novel compounds in blocking the production of TNF also was evaluated using a model based on rats challenged with LPS. Male Harlen Lewis rats [Sprague Dawley Co.] were used in this model. Each rat weighed approximately 300 g and was fasted overnight prior to testing. Compounds administration was typically by oral gavage (although intraperitoneal, subcutaneous and intravenous administration were also used in a few instances) 1 to 24 hours prior to the LPS challenge. Rats were administered 30 μg/kg LPS [salmonella typhosa, Sigma Co.] intravenously via the tail vein. Blood was collected via heart puncture 1 hour after the LPS challenge. Serum samples were stored at −20° C. until quantitative analysis of TNF-α by Enzyme Linked-Immuno-Sorbent Assay (“ELISA”) [Biosource]. Additional details of the assay are set forth in Perretti, M., et al., Br. J. Pharmacol. (1993), 110, 868-874, which is incorporated by reference in this application.
In vivo assessment of the ability of the compounds to inhibit LPS-stimulated TNF release in the rat is shown in the column identified as:
wherein in the dose is milligram per kilogram (mpk) administered by oral gavage and the predose time indicates the number of hours before LPS challenge when the compound is administered.
(In general: In an ELISA, binding on a coated surface is turned into a signal by an enzyme label.)

In experiment [1] the target is T2, human GST-p38 kinase alpha (Homo sapiens, UniProt Q16539).
T2 construct: The coding region of the human p38a cDNA was obtained by PCR-amplification from RNA isolated from the human monocyte cell line THP.1; made in house; host or cells: E. coli DH10B
T2 sequence (Q16539 whole entry): as above
Description: p38 kinase in vitro assay, second format, phosphorylation of EGFRP with 33P-ATP. The conditions noted are these: read-out: p38α Kinase Assay IC50. Format: biochemical. The protocol: A second assay format was also employed that is based on p38 kinase alpha induced phosphorylation of EGFRP (epidermal growth factor receptor peptide, a 21 mer) in the presence of ^33P-ATP. Compounds were tested in 10 fold serial dilutions over the range of 100 μM to 0.001 μM in 10% DMSO. Each concentration of inhibitor was tested in triplicate. Compounds were evaluated in 50 μl reaction volumes in the presence of 25 mM Hepes pH 7.5, 10 mM magnesium acetate, 4% glycerol, 0.4% bovine serum albumin, 0.4 mM DTT, 50 μM unlabeled ATP, 25 μg EGFRP (200 μM), and 0.05 uCi gamma ^33P-ATP. Reactions were initiated by addition of 0.09 μg of activated, purified human GST-p38 kinase alpha. Activation was carried out using GST-MKK6 (5:1, p38: MKK6) for one hour at 30° C. in the presence of 50 μM ATP. Following incubation for 60 minutes at room temperature, the reaction was stopped by addition of 150 μl of AG 1×8 resin in 900 mM sodium formate buffer, pH 3.0 (1 volume resin to 2 volumes buffer). The mixture was mixed three times with pipetting and the resin was allowed to settle. A total of 50 μl of clarified solution head volume was transferred from the reaction wells to Microlite-2 plates. 150 μl of Microscint 40 was then added to each well of the Microlite plate, and the plate was sealed, mixed, and counted.

Setting [2] is: TNF production, LPS-stimulated human whole blood, read-out: Human Whole Blood IC50.
Where [3] appears, read: TNF production, LPS-stimulated human whole blood.

Consider `Fc1ccc(-c2n[nH]c([C@H]3CCCN3)c2-c2ccncc2)cc1` [Example C-125, (R)-5-(2-PYROLIDINYL)-4-(4-PYRIDYL)-3-(4-FLUOROPHENYL)PYRAZOLE], for which the IC50 on human p38 kinase alpha was 7.22 µM; with human TNF (setting [2]) it was greater than 25 µM.
As to `O=C(O)CCC(=O)N1CCN(c2n[nH]c(-c3ccc(Cl)cc3)c2-c2ccncc2)CC1` [A-321 (dihydrate), 4-[5-(4-chlorophenyl)-4-(4-pyridinyl)-1H-pyrazol-3-yl]-γ-oxo-1-piperazinebutanoic acid, dihydrate], the IC50 in the experiment with human TNF (read-out: TNF Inhibition-Human Whole Blood Assay) is greater than 25 µM.
In the case of `CC(C)N1CCC(c2[nH]nc(-c3ccc(C(F)(F)F)cc3)c2-c2ccncc2)CC1` [Example C-85], the IC50 on human p38 kinase alpha is 0.57 µM; in the experiment with human TNF (setting [2]), greater than 25 µM.
Take `Clc1ccc(-c2n[nH]c(C3CCN(Cc4nccs4)CC3)c2-c2ccncc2)cc1` [Example C-82]: the IC50 worked out at 0.15 µM on human p38 kinase alpha and 7.31 µM with human TNF (setting [2]).
Regarding `O[C@H]1CC[C@H](Nc2cc(-c3c[nH]nc3-c3ccc(F)cc3)ccn2)CC1` [Example A-386, trans-4-[[4-[3-(4-fluorophenyl)-1-H-pyrazol-4-yl]-2-pyridinyl]amino]cyclohexanol], the IC50 in the experiment with human TNF (Table 9, human whole blood, LPS, read-out: TNF Inhibition-Human Whole Blood Assay) was found to be 0.16 µM. The molecule also gave an inhibition in vivo at 20 mg/kg in the experiment on TNF-α (Table 9, dose 20 mg/kg) of 91%.
Take `Fc1ccc(-c2n[nH]c(C3CCCNC3)c2-c2ccncc2)cc1` (stereo not shown) [Example C-90, 5-(3-piperidyl)-4-(4-pyridyl)-3-(4-fluorophenyl)pyrazole]: the IC50 on human p38 kinase alpha came out at 0.037 µM; with human TNF (setting [2]) it was 0.48 µM.
On to `OCCCCc1[nH]nc(-c2ccc(F)cc2)c1-c1ccncc1` [Example C-132, 5-[4-(1-HYDROXY)BUTYL]-4-(4-PYRIDYL)-3-(4-FLUOROPHENYL)PYRAZOLE], for which, on human p38 kinase alpha, the IC50 was determined as 0.086 µM. Moreover, the inhibition at 5 µM in the experiment with human TNF (setting [3]) was 44%.
`Fc1ccc(-c2n[nH]c([C@@H]3CCCNC3)c2-c2ccncc2)cc1` [Example C-127]: the IC50 was determined as 0.038 µM on human p38 kinase alpha and 0.27 µM with human TNF (setting [2]).
As to `CN1CCC(c2[nH]nc(-c3cccc(C(F)(F)F)c3)c2-c2ccncc2)CC1` [Example C-87], the IC50 is 0.027 µM at human p38 kinase alpha and 0.34 µM in the experiment on human TNF (setting [2]).
`O=C1CCC(Nc2cc(-c3c[nH]nc3-c3ccc(F)cc3)ccn2)CC1` [Example A-387, 4-[[4-[3-(4-fluorophenyl)-1H-pyrazol-4-yl]-2-pyridinyl]amino]cyclohexanone]: in experiment [1] (Table 9, 10% DMSO), the IC50 was found to be 0.005 µM. This molecule also yielded an inhibition in vivo at 20 mg/kg in the experiment with TNF-α (Table 9, dose 20 mg/kg) of 83%.
As to `CCOC(=O)N1CCC(Nc2n[nH]c(-c3ccc(Cl)cc3)c2-c2ccncc2)CC1` [Example A-331, ethyl 4-[[5-(4-chlorophenyl)-4-(4-pyridinyl)-1H-pyrazol-3-yl]amino]-1-piperidinecarboxylate], in experiment [1] (Table 8, 10% DMSO), the IC50 stood at 0.64 µM. In the experiment with TNF-α (Table 8, dose 20.0 mg/kg), this molecule gave an inhibition in vivo at 20 mg/kg of 13%.
With `C#CCN1CCC(c2[nH]nc(-c3ccc(Cl)cc3)c2-c2ccncc2)CC1` [Example C-81], on human p38 kinase alpha, the IC50 amounted to 0.037 µM. Moreover, the inhibition at 5 µM in the experiment on human TNF (setting [3]) is 40%.
The like results for `C=CCN1CCC(c2[nH]nc(-c3ccc(Cl)cc3)c2-c2ccncc2)CC1` [Example C-80] were, in that order, 0.008 µM and 51%.
For the molecule `Fc1ccc(-c2n[nH]c(N3CCC4(CC3)OCCO4)c2-c2ccncc2)cc1` [Example A-380, 8-[5-(4-fluorophenyl)-4-(4-pyridinyl)-1H-pyrazol-3-yl]-1,4-dioxa-8-azaspiro[4.5]decane], in experiment [1] (Table 9, 10% DMSO), the IC50 amounted to 0.85 µM. In addition, in the experiment on TNF-α (Table 9, dose 3 mg/kg, read-out: Rat LPS Assay % Inhibition), the inhibition in vivo at 3 mg/kg came out at 33%. Besides, the inhibition in vivo at 10 mg/kg in the experiment with TNF-α (Table 9, dose 10 mg/kg) worked out at 62%. This molecule also returned an inhibition in vivo at 30 mg/kg in the experiment on TNF-α (Table 9, dose 30 mg/kg) of 85%.
For `Fc1ccc(-c2n[nH]c([C@@H]3CCCN3)c2-c2ccncc2)cc1` [Example C-123, (S)-5-(2-PYROLIDINYL)-74-(4-PYRIDYL)-3-(4-FLUOROPHENYL)PYRAZOLE], the IC50 at human p38 kinase alpha is 0.67 µM; in the experiment with human TNF (setting [2]) it was greater than 25 µM.
